Measurements published in patent US8501715B2, “Oxidized lipids and uses thereof in the treatment of inflammatory diseases and disorders” (Vascular Biogenics Ltd., priority 2003, dated 2013).
“Also recorded” adds a separate entry of the source. Where two headings read alike, the source gives them in different places.

Experiments:
TNF-α [1] = conditions: IFN-γ, PGN
Protocol: (§2) PBMC's from healthy donors were incubated over-night with IFN-γ and then activated with PGN in the presence of CI-201 for another 24 hours. Supernatants were then evaluated for p40 and TNF-α production.

IFN-γ [2] = experiment: RT-PCR cytokine expression in the aorta: IFN-γ; format: in vivo; conditions: oral 1 mg/mouse 5 times every other day, 8 weeks after final administration
Protocol: (§1) The effect of ALLE, CI-201, its corresponding acetal derivatives Et-acetal and Me-acetal (Compounds IIa and IIb, FIG. 10) and oxLDL on cytokine expression in the target organ—the aorta—was evaluated using RT-PCR as described hereinabove. […] Oral administrations took place 5 times every other day.

Apo-E KO mice = experiment: Assessment of atherosclerosis: lesion area in the aortic sinus; format: in vivo, mouse
IL-12/IL-23p40 = experiment: Q-PCR RNA expression in CD11c+ BMDC's: IL-12/IL-23p40; conditions: CI-201 20 μg/ml, PGN 10 μg/ml, first 6 hours following activation, normalized to GAPDH
IL-10 and IFN-γ = conditions: oral 1 mg/dose 5 times every other day
Protocol: The effects of CI-201 treatment on cytokine expression in the targeted organ—the aorta, as well as in the spleen, liver, kidneys and small intestine were evaluated using RT-PCR as described hereinabove. Apo-E KO mice were orally administered with 1 mg/dose CI-201 or with 0.2 ml/mouse PBS, 5 times every other day. The expression of the anti-inflammatory cytokine IL-10 and the pro-inflammatory cytokine IFN-γ were determined 8 weeks after final oral administration.

Serum Amyloide A (SAA) = experiment: Inflammatory markers in serum (ELISA): SAA; format: in vivo; conditions: oral 0.1 μg/mouse 5 times every other day; day 0, 2 and 4 weeks; control group dramatically increased
Protocol: (§3) Inflammatory Markers Evaluation in Serum: Serum was separated by centrifuge and stored at −70° C. Analysis of inflammatory markers was performed by ELISA (IL-10; R&D and SAA; BIOSOURCE).
(§4) Thus, Apo-E KO mice were orally administered with 0.1 μg/mouse CI-201 or 0.2 ml/mouse PBS, 5 times every other day. Mice serum was collected before treatment (day 0), at the end of the treatment (two weeks) and two weeks thereafter (4 weeks) and the level of the inflammation markers IL-10 and Serum Amyloide A (SAA) were evaluated.

IL12p40 [3] = conditions: human Mo-DC's, PGN 10 μg/ml, 24 hours
Protocol: (§5) Supernatants were collected 24 hours following activation and the levels of p40 (FIG. 30a) and TNF-α (FIG. 30b) were measured by ELISA.
(§6) Isolation of human monocyte derived dendritic cells (Mo-DC's): PBMCs were isolated from heparinized whole blood from healthy donors by Ficoll-Paque (Amersham, Uppsala, Sweden). Cells were incubated at 4° C. for 15 minutes in buffer containing PBS, 0.5% bovine serum albumin (BSA) and 2 mM EDTA with human CD14 microbeads (Miltenyi biotech) washed and positively selected on a Midi-Macs separation unit through LS column. The resulting cells were counted washed and seeded (10^6/ml) in medium containing RPMI-1640, L-glutamine, 3-mercaptoethanol, 10% FCS, antibiotics (Penicillin, Streptomycin), non essential amino acids, sodium pyruvate, 40 ng/ml of human GM-CSF and 20 ng/ml of human IL-4 (R&D systems, Minneapolis, Minn.). Medium was replaced every other day and cells were used for subsequent experiments on days 5-6 post culturing. Cell purity was >75% as determined by FACS for CD11c.
(§7) Cytokine analysis: For the detection of cytokine production, supernatants from BMDC's and Mo-DC's following a 24 hour treatment were tested with Duoset ELISA kits for mouse IL12p40, TNF-α, IL-6 and human IL12p40 and TNF-α (R&D systems, Minneapolis, Minn.) respectively.

IL-12p35 = experiment: Q-PCR RNA expression in CD11c+ BMDC's: IL-12p35; conditions: CI-201 20 μg/ml, PGN 10 μg/ml
IL12p40 [4] = experiment: p40 production by activated BMDC's (ELISA); format: cell-based, mouse
TNF-α [5] = conditions: human Mo-DC's, PGN 10 μg/ml, 24 hours
Protocol: as §5, §6, §7

IL-12 = experiment: RT-PCR cytokine expression in the aorta: IL-12; format: in vivo; conditions: oral 1 mg/mouse 5 times every other day, 8 weeks after final administration
Protocol: as §1

IL-10 [6] = conditions: oral 0.1 μg/mouse 5 times every other day
Protocol: as §3, §4

Lewis rats = experiment: Adjuvant-induced arthritis (AIA) in Lewis rats; format: in vivo, rat
IL-10 [7] = experiment: RT-PCR cytokine expression in the aorta: IL-10; format: in vivo, mouse
Protocol: as §1

TNF-α [8] = conditions: splenic CD11b cells, IFN-γ over night, PGN 24 hours
Protocol: (§8) Isolation of Monocytes/Macrophages: Spleens were removed and a cell suspension was prepared. Erythrocytes were depleted using red blood cell (RBC) lysis buffer (Beit Haemek, Israel). Cells were washed in phosphate buffer saline (PBS) (Beit Haemek, Israel), and incubated in 4° C. for 15 min in buffer containing PBS and 0.5% bovine serum albumin (BSA) with mouse CD11b microbeads (Miltenyi biotech, Bergisch Gladbach, Germany). Cells were then washed, resuspended in the same buffer and positively selected on a Mini-Macs separation unit through a MS column (Miltenyi biotech).
(§9) In order to assess CI-201 effect on p40 production by macrophages, splenic CD11b cells were incubated over night with IFN-γ and then activated for 24 hours with PGN in the presence CI-201.

TNF-α [9] = conditions: BMDC's, activators other than PolyI:C
Protocol: Isolation of bone-marrow derived dendritic cells (BMDC's): Bone-marrow was flushed out with cold RPMI-1640 from mice femur and tibia. […] Cells were then washed, resuspended in the same buffer, and depleted from B and T cells on a Midi-Macs separation unit through a LD or LS column (Miltenyi biotech). The depleted cells were then counted, washed and seeded (10^6/ml) in medium containing RPMI-1640, L-glutamine, β-mercaptoethanol, 10% FCS, antibiotics (Penicillin, Streptomycin) and 20 ng/ml of mouse GM-CSF (Peprotech, Rehovot, Israel). Medium was replaced every other day and cells were used for subsequent experiments on days 5-6 post culturing.
as §7

p40 [10] = conditions: PBMC's from two donors, IFN-γ over-night, PGN 24 hours; all tested concentrations
Protocol: as §2

IL-23p19 = conditions: CD11c+ BMDC's, CI-201 20 μg/ml, PGN 10 μg/ml
IFN-γ [11] = conditions: in vivo oral treatment (0.1 μg/feed C57BL/6, ovalbumin; 10 and 100 μg/mouse/feed SJL, PLP 139-151); ex vivo restimulation
Protocol: (FIG. 26a) C57BL/6 mice were fed in alternate days from day −10 to day +10 with CI-201 (0.1 μg/feed) of PBS. On day 0, mice were immunized with ovalbumin in CFA. On day 10, draining lymph nodes were excised and cells stimulated with ovalbumin. Cells were expanded for a week and then re-stimulated for 4 hours with plate bound anti-CD3 and anti-CD28 (5 μg/ml) in the presence of monensin (2 μM) and tested for cytokine expression by intracellular staining. Results are gated on CD4+ T cells. […] Lymph nodes were collected 10 days later, stimulated ex vivo with 10 μg/ml of PLP 139-151 peptide or 0.5 μg/ml of anti CD3 and three days later supernatants were collected and tested by ELISA for cytokine production.
Lymph nodes were collected 10 days later, stimulated ex vivo with 10 μg/ml of PLP 139-151 peptide or 0.5 μg/ml of anti CD3 and three days later cytokine production from the supernatant was measured using the Duoset ELISA kit (R&D systems, Minneapolis, Minn.).
Ex-vivo ELISA and Intracellular staining: For intracellular staining, C57BL/6 were orally administered with CI-201 (0.1 μg/mouse/feed) or PBS as control, 5 times, once every other day. Dosing volume was 0.2 ml. Subsequently, mice were immunized subcutaneously in two flanks with 200 μl of emulsion containing 200 μg of ovalbumin and MT (100 μg). […]

IL-1 = conditions: BMDC's, PGN activation
Protocol: Supernatant were collected 24 hours following activation and the levels of IL-6 (FIG. 3M) and IL-1 (FIG. 3N) were measured.
Isolation of bone-marrow derived dendritic cells (BMDC's): Bone-marrow was flushed out with cold RPMI-1640 from mice femur and tibia. A cell suspension was prepared and erythrocytes were removed using red blood cell (RBC) lysis buffer (Beit Haemek, Israel). […] Cells were then washed, resuspended in the same buffer, and depleted from B and T cells on a Midi-Macs separation unit through a LD or LS column (Miltenyi biotech). The depleted cells were then counted, washed and seeded (10^6/ml) in medium containing RPMI-1640, L-glutamine, β-mercaptoethanol, 10% FCS, antibiotics (Penicillin, Streptomycin) and 20 ng/ml of mouse GM-CSF (Peprotech, Rehovot, Israel). Medium was replaced every other day and cells were used for subsequent experiments on days 5-6 post culturing.

CD11c+BMDC's = conditions: 3 hours PGN 10 μg/ml with CI-201 20 μg/ml
Protocol: Gene Chip analysis: Mouse BMDC's were enriched for CD11c+DC (>90%) with mouse CD11c microbeads from 5-6 days cultures over MS or LS columns (Miltenyi biotech). […] RNA was prepared and used to generate cRNA. Preparation of cRNA, hybridization and scanning was done in the Weizmann Institute of Science (Rehovot, Israel) on the mouse genome 430A 2.0 array (Affymetrix, Santa Clara, Calif.).

p40 [12] = conditions: splenic CD11b cells, IFN-γ over night, PGN 24 hours
Protocol: as §8, §9

IL-27p28 = experiment: Q-PCR RNA expression in CD11c+ BMDC's: IL-27p28; conditions: CI-201 20 μg/ml, PGN 10 μg/ml
IL-6 = conditions: BMDC's, PGN activation
Protocol: BMDC's were incubated for 1 hour with different CI-201 concentrations prior to activation with 10 μg/ml of PGN. Supernatant were collected 24 hours following activation and the levels of IL-6 (FIG. 3M) and IL-1 (FIG. 3N) were measured.
as §7

## CCCCCCCCCCCCCCCCOC[C@H](COP(=O)([O-])OCC[N+](C)(C)C)OCCCCC(=O)O [CI-201, 1-Hexadecyl-2-(5′-Carboxy-butyl)-sn-glycero-3-phosphocholine]
TNF-α [1]; PBMC's from donor I
  TNF-α production: did not impair
TNF-α [1]; PBMC's from donor II
  TNF-α levels: modest reduction
IFN-γ [2]
  IFN-γ expression in the aorta versus PBS: reduced expression level
Apo-E KO mice; oral 0.1 μg/dose, 3 monthly sets of 5 administrations, 12 weeks after first feeding, 26-28 weeks old mice
  Aortic Sinus Lesion: 228,000±25,772 μm^2
Apo-E KO mice; oral 0.1 μg/dose, P<0.05
  decrease in atherosclerotic lesion in the aortic sinus as compared with the PBS treated group: 92%
Apo-E KO mice; oral 1 μg/dose, 3 monthly sets of 5 administrations, 12 weeks after first feeding, 26-28 weeks old mice
  Aortic Sinus Lesion: 295,729 ± 20,909 μm^2
Apo-E KO mice; oral 10 μg/dose, 3 monthly sets of 5 administrations, 12 weeks after first feeding, 26-28 weeks old mice
  Aortic Sinus Lesion: 272,483 ± 20,505 μm^2
Apo-E KO mice; oral 0.025 mg/dose, 8 weeks, P=0.051
  decrease of the aortic sinus lesion versus PBS control: 33%
Apo-E KO mice; oral 0.1, 1 or 10 μg/dose tested
  most effective dose for inhibiting disease progression: 0.1 μg/dose
Apo-E KO mice; oral 0.1, 1 or 10 μg/dose, 3 monthly sets
  disease progression (lesion area versus base line group): completely inhibited disease progression; also recorded: inhibited the disease progression
Apo-E KO mice; oral administration
  atherogenesis in Apo-E KO mice, oral administration (summary of earlier examples): substantially inhibited atherogenesis
Apo-E KO mice; oral gavage 0.025 mg/dose every day (5 times a week) for 8 weeks, male 12 weeks old mice
  Aortic Sinus Lesion: 125,192±19,824 μm^2
IL-12/IL-23p40
  p40 RNA expression, inhibition compared to control: more than two folds
IL-10 and IFN-γ; 8 weeks after final administration
  cytokine expression in the spleen and in the small intestine versus PBS: no differences
IL-10 and IFN-γ; data not shown
  cytokine expression in the liver and in kidney: No change
Serum Amyloide A (SAA)
  SAA serum levels: no alterations
IL12p40 [3]
  p40 production: can inhibit p40 production
IL-12p35
  RNA expression level of p35: did not modify
IL12p40 [4]; BMDC's, 1 hour pre-incubation, activation with PGN (TLR 2/6) 10 μg/ml, 24 hours
  p40 production: significant and dose dependent reduction
IL12p40 [4]; BMDC's, CpG (TLR9) engagement, only 20 μg/ml of CI-201
  p40 secretion: significantly inhibit
IL12p40 [4]; BMDC's, Fc-CD40L activation 1 μg/ml
  p40 secretion: significant reduction
IL12p40 [4]; BMDC's, PolyI:C (TLR3) activation 25 μg/ml
  p40 production: significant and dose dependent p40 inhibition
IL12p40 [4]; BMDC's, activation with LPS (TLR4) 100 ng/ml, intermediated concentrations of CI-201
  p40 levels: significant, but small reduction
IL12p40 [4]; BMDC's, activation with Pam3CSK4 (TLR1/2) 300 ng/ml, 24 hours
  p40 production: significant p40 inhibition
IL12p40 [4]; activated DC's in vitro
  concentration giving maximal inhibition of p40 production (highest concentration used): 20 µg/mL
TNF-α [5]
  ability to produce TNF-α: without altering
IL-12
  IL-12 expression in the aorta versus PBS: reduced levels
IL-10 [6]; 2 weeks after end of treatment (4 weeks)
  IL-10 serum level: decay
IL-10 [6]; end of the treatment (2 weeks)
  IL-10 serum level: substantial increase
Lewis rats; continuous treatment, high dose: 5 feedings before induction, then 3 times a week for about 30 days
  arthritis development (paw swelling, arthritis score, percentage of rats with symptoms): substantially attenuated arthritis development
Lewis rats; oral pre-treatment 4.0 mg/kg 5 times every other day before AIA induction
  paw swelling versus PBS-pretreated rats: significant decrease
Lewis rats; oral pre-treatment with the higher dose (4 mg/kg) before AIA induction
  mobility: close to that of normal rats
IL-10 [7]; oral 0.025 mg/dose, 8 weeks
  IL-10 expression in the aorta, higher than control group: 40%
IL-10 [7]; oral 1 mg/mouse 5 times every other day, 8 weeks after final administration
  IL-10 expression in the aorta versus PBS: elevated levels
TNF-α [8]
  TNF-α production levels versus control cells: no major differences
TNF-α [9]
  production of TNF-α: did not impair
p40 [10]
  p40 production: close to complete inhibition
IL-23p19
  RNA expression level of p19: substantial inhibition
IFN-γ [11]
  IFN-γ production by CD4+ T cells: reduced IFN-γ production
IL-1
  production of IL-1: did not impair
CD11c+BMDC's
  p19 expression (gene chip): reduced p19 expression
  p40 RNA expression (gene chip): reduced RNA expression
p40 [12]
  p40 production levels versus control cells: no major differences
IL-27p28
  RNA expression level of p28: did not modify
IL-6
  production of IL-6: did not impair
